Molecular target: T1, human FASN (Homo sapiens, UniProt P49327)
T1 construct: was purified from SKBR3 cells using procedures modified from those in Jayakumar et al; endogenous in cells; host or cells: SKBR3 human breast cancer cells (ATCC); Endogenous enzyme purified by ammonium sulfate precipitation and a mono Q column
Assay: FASN NADPH Consumption Assay
Type: biochemical
Settings: human FASN purified from SKBR3 cells; starred symbols
Protocol: Human FASN protein (SEQ ID NO. 1) was purified from SKBR3 cells using procedures modified from those in Jayakumar et al. PNAS 1995, 92:8695-8699. SKBR3 cells were obtained from ATCC and grown in DMEM high glucose medium supplemented with 10% FBS, 1 μg/mL bovine pancreas insulin, 100 U/mL penicillin and 100 µg/mL streptomycin. The confluent cells were trypsinized and washed three times with PBS buffer before frozen in liquid N2 and stored at −80° C. Frozen cells were thawed on ice and resuspended in lysis buffer (25 mM Tris-HCl, pH 7.0, 15 mM NaCl, 1 mM EDTA, and 1 mM DTT) with protease inhibitors. The cells were lysed by sonication, and the cell debris was removed by centrifugation at 20,000 rpm for 30 min. To the supernatant, neutralized saturated ammonium sulfate solution was added to a final concentration of 35%. The solution was left on ice for 1 hr, and the precipitated proteins were harvested by centrifugation at 20,000 rpm for 30 min. The proteins were redissolved in lysis buffer without NaCl and loaded on a mono Q column. Bound proteins were eluted with a linear gradient of NaCl in lysis buffer. Each fraction was analyzed by SDS-PAGE and FASN NADPH consumption assay. The fractions containing FASN were pooled and concentrated to 2-3 mg/mL. Glycerol was added to 20%, and the protein was frozen in liquid N2 and stored at −80° C.
All chemicals were purchased from Sigma (St. Louis, Mo.). The procedures of NADPH consumption assay were similar to those described in Cox et al., PNAS 1983, 80:4233-4237. On a 96-well polypropylene microplate, dilution series (typical concentrations 60 nM-1.0 mM) of test compounds were prepared in DMSO, of which 4.0 μL each was transferred to a black polystyrene assay microplate and mixed with 36 μL FASN assay buffer (50 mM potassium phosphate, pH 7.0, 1.0 mM EDTA, 0.01% NP-40) plus 5.0 mM fresh DTT. FASN protein (40 μL 150 nM FASN) was added per well, and the microplate was incubated at 37° C. for 30 min. Enzyme activity measurement was initiated by addition of 20 μL 5× substrate mixture to final concentrations of 60 nM FASN, 2.4 nM-40 μM compound, 0.2 mM NADPH, 50 μM butyryl-CoA, 0.5 mM malonyl-CoA in 100 μL assay buffer plus 5.0 mM DTT and 4.0% DMSO. NADPH consumption was monitored kinetically by fluorescence (λEx=340 nm, λEm=460 nm) on an EnVision 2100 multilabel plate reader (Perkin Elmer, Waltham, Mass.). FASN enzyme activity (slope) in the presence of 4% DMSO was used as maximum control, whereas background (minimum control) was measured by omission of malonyl-CoA in the substrate mixture. Inhibition curves were fitted by a logistic function to yield IC50 values:
Compounds were assayed as inhibitors of human FASN using the above-described FASN Scintillation Proximity Flashplate Assay (IC50; nM) or FASN NADPH Consumption Assay (*) (IC50; nM). The corresponding activity of the isolated compound is also provided along with the measured mass (ES^+).

T1 sequence (P49327 whole entry): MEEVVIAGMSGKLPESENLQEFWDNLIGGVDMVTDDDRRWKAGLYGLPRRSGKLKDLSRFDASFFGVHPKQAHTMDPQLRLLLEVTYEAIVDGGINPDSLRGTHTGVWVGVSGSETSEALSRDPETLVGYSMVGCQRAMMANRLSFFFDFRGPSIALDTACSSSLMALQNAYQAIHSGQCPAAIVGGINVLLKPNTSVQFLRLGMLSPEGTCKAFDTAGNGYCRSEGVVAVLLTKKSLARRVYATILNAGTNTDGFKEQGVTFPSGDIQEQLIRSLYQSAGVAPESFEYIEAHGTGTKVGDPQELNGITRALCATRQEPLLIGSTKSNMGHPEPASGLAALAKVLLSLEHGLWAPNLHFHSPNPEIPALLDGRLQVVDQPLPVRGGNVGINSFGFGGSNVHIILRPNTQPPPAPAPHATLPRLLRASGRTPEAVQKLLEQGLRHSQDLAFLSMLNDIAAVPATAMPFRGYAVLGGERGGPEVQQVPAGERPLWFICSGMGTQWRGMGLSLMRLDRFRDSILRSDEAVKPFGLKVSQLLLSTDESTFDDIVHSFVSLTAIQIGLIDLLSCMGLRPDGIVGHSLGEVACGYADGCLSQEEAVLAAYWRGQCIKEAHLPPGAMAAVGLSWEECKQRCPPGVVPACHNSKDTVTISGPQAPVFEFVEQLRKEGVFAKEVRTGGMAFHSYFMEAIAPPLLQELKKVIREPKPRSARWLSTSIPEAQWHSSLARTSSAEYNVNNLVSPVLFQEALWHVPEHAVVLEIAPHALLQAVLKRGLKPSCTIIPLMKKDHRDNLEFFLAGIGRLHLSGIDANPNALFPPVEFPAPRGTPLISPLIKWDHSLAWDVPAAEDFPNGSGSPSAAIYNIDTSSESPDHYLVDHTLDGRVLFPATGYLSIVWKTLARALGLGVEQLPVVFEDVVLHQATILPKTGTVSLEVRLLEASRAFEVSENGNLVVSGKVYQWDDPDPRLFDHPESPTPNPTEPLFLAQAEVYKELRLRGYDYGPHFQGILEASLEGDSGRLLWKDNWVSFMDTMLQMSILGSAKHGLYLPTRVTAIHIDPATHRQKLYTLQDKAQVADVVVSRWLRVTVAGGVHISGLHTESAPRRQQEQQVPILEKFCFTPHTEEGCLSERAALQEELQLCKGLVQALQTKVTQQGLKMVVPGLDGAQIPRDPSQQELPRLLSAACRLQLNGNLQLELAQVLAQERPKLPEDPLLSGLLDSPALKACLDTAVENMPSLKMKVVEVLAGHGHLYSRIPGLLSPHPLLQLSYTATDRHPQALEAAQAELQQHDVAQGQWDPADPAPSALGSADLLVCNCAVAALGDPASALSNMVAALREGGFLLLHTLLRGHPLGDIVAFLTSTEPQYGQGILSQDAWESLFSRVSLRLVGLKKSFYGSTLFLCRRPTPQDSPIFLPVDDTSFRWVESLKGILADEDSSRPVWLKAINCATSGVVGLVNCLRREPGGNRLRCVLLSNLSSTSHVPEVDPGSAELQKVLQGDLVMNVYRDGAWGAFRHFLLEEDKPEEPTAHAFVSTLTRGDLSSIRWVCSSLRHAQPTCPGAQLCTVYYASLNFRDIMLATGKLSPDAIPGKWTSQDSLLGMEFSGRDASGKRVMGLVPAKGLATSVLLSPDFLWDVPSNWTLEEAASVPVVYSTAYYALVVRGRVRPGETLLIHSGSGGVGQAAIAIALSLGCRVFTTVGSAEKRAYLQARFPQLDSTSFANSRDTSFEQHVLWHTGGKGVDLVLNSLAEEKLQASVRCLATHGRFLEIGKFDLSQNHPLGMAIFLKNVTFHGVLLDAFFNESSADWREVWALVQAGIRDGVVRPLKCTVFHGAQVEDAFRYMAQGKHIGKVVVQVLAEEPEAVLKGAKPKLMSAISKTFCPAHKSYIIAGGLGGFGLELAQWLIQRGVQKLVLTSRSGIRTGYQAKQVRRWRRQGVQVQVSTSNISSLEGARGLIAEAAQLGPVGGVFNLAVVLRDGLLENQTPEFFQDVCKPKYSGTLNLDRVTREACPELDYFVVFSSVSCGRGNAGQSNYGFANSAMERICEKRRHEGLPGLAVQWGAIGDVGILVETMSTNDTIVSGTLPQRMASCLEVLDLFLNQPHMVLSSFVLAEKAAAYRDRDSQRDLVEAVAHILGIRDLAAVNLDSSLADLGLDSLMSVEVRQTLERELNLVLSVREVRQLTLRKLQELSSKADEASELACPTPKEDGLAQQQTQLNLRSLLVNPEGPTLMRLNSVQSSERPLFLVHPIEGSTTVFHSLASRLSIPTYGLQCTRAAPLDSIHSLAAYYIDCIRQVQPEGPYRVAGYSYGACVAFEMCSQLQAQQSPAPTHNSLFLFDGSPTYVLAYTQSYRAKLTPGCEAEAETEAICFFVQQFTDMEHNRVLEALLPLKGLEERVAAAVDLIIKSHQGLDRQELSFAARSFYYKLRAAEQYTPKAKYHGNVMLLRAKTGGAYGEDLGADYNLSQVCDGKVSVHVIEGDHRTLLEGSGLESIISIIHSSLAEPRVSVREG

IC50 [nM] | SMILES
60 to 250 | COc1cccc(N(C)C(=O)n2nnn(-c3c(F)cccc3F)c2=O)c1
60 to 250 | O=C(N(c1ccccc1)c1ccccc1)n1nnn(-c2c(F)cccc2F)c1=O
60 to 250 | CCN(C(=O)n1nnn(-c2c(F)cccc2F)c1=O)c1c(F)cccc1Cl
60 to 250 | CN(C(=O)n1nnn(-c2c(F)cccc2F)c1=O)c1cc(F)cc(F)c1
60 to 250 | CCN(C(=O)n1nnn(-c2c(F)cccc2F)c1=O)c1ccc([N+](=O)[O-])cc1
60 to 250 | CN(C(=O)n1nnn(-c2c(F)cccc2F)c1=O)c1ccccc1
60 to 250 | CCCCC#Cc1ccc(N(CC)C(=O)n2nnn(-c3c(F)cccc3F)c2=O)c(F)c1
60 to 250 | CCN(C(=O)n1nnn(-c2c(F)cccc2F)c1=O)c1ccc(C(=O)OCc2ccccc2)c(OC)c1
< 60 | CCN(C(=O)n1nnn(-c2c(F)cccc2F)c1=O)c1ccc(C(=O)O)cc1
60 to 250 | CCN(C(=O)n1nnn(-c2c(F)cccc2F)c1=O)c1ccc(C#Cc2ccccc2)cc1F
60 to 250 | COc1ccc(C(=O)O)cc1N(CCCc1ccccc1)C(=O)n1nnn(-c2c(F)cccc2F)c1=O
60 to 250 | CCN(C(=O)n1nnn(-c2c(F)cccc2F)c1=O)c1ccc(Cl)cc1Cl
250 to 1000 | CCCCC#Cc1ccc(N(C)C(=O)n2nnn(-c3c(F)cccc3F)c2=O)cc1

The next lines start with the compound.

SMILES | IC50 [nM]
CCN(C(=O)n1nnn(-c2ccccc2)c1=O)c1ccc(C(=O)O)c(OC)c1 | 60 to 250
CCN(C(=O)n1nnn(-c2ccccc2Oc2ccccc2)c1=O)c1ccccc1F | 60 to 250
CCN(C(=O)n1nnn(-c2c(F)cccc2F)c1=O)c1ccc(Cl)cc1 | 60 to 250
CN(C(=O)n1nnn(-c2c(F)cccc2F)c1=O)c1ccccc1Br | 60 to 250
CN(C(=O)n1nnn(-c2c(F)cccc2F)c1=O)c1ccccc1F | 60 to 250
CN(C(=O)n1nnn(-c2c(F)cccc2F)c1=O)c1cccc(Br)c1 | 60 to 250
CCN(C(=O)n1nnn(-c2c(F)cccc2F)c1=O)c1cccc(F)c1F | < 60
CCN(C(=O)n1nnn(-c2c(F)cccc2F)c1=O)c1ccc(C)cc1 | 60 to 250
C=CCN(C(=O)n1nnn(-c2c(F)cccc2F)c1=O)c1ccccc1 | < 60
CCN(C(=O)n1nnn(-c2c(F)cccc2F)c1=O)c1cc(F)ccc1F | < 60
CCN(C(=O)n1nnn(-c2c(F)cccc2F)c1=O)c1ccccc1C | 60 to 250
CCN(C(=O)n1nnn(-c2c(F)cccc2F)c1=O)c1ccc(C(=O)OCc2ccccc2)cc1 | 60 to 250
CCCN(C(=O)n1nnn(-c2c(F)cccc2F)c1=O)c1ccccc1 | 60 to 250
CCN(C(=O)n1nnn(-c2c(F)cccc2F)c1=O)c1ccccc1 | < 60
CCN(C(=O)n1nnn(-c2c(F)cccc2F)c1=O)c1cccc2ccccc12 | 60 to 250
CC(C)N(C(=O)n1nnn(-c2c(F)cccc2F)c1=O)c1cccc(C(=O)OCc2ccccc2)c1 | < 60
COc1ccc(C(=O)O)cc1N(CCCCc1ccccc1)C(=O)n1nnn(-c2c(F)cccc2F)c1=O | 60 to 250
CCN(C(=O)n1nnn(-c2c(F)cccc2F)c1=O)c1ccc(C(=O)NC(C)C)cc1F | < 60
CCN(C(=O)n1nnn(-c2c(F)cccc2F)c1=O)c1ccc(N(S(C)(=O)=O)S(C)(=O)=O)cc1F | < 60
CN(C(=O)n1nnn(-c2c(F)cccc2F)c1=O)c1ccc(Br)cc1 | 60 to 250
CC(C)N(C(=O)n1nnn(-c2c(F)cccc2F)c1=O)c1ccccc1 | 60 to 250
CN(C(=O)n1nnn(-c2c(F)cccc2F)c1=O)c1cccc(F)c1 | 60 to 250
CN(C(=O)n1nnn(-c2c(F)cccc2F)c1=O)c1ccccc1C(F)(F)F | 60 to 250
CCN(C(=O)n1nnn(-c2c(F)cccc2F)c1=O)c1ccc(C#CC(C)(C)C)cc1F | 60 to 250
CN(C(=O)n1nnn(-c2c(F)cccc2F)c1=O)c1ccc(F)cc1 | 60 to 250
CCN(C(=O)n1nnn(-c2c(F)cccc2F)c1=O)c1ccc(CCc2ccccc2)cc1F | 60 to 250
CCN(C(=O)n1nnn(-c2c(F)cccc2F)c1=O)c1ccccc1OC(F)(F)F | 60 to 250
CCN(C(=O)n1nnn(-c2c(F)cccc2F)c1=O)c1ccccc1-c1ccccc1 | 1000 to 10000

Source: patent publication US9346769B2, “Tetrazolones as inhibitors of fatty acid synthase” (Infinity Pharmaceuticals, Inc., priority 2010, dated 2016)
